Measurements: US5464835A, “Use for bis-heterocyclic compounds and pharmaceutical compositions containing same” (Harbor Branch Oceanographic Institution, Inc., priority 1994, dated 1995)

The molecules below were run on Candida albicans (assay: Antifungal activity against Candida albicans (MIC, RPMI-1640 growth medium)). Settings: not given.
Assay type: cell-based

SMILES | antifungal activity (in words)
O=C1NCC(c2c[nH]c3cc(Br)ccc23)N=C1c1c[nH]c2cc(Br)ccc12 (stereo not shown) [Hamacanthin B] | active components
O=C1NC(c2c[nH]c3cc(Br)ccc23)CN=C1c1c[nH]c2cc(Br)ccc12 (stereo not shown) [Hamacanthin A] | active components

The molecules below were run against bee venom phospholipase A2 (Apis mellifera, UniProt P00630) (assay: biochemical). Settings: not given.
Assay type: biochemical

Chain of bee venom phospholipase A2 (P00630 34-167 limits assumed): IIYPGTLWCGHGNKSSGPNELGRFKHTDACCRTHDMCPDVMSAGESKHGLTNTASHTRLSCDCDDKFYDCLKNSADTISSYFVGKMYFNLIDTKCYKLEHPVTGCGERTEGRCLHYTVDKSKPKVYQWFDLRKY

SMILES | IC50 | inactivation of bee venom phospholipase A2 (in words)
COc1ccc2c(c1)c(CC(=O)O)c(C)n2C(=O)c1ccc(Cl)cc1 [Indomethacin, reference compound] | > 1000 µM | inactive
CC1=C(CC/C(C)=C/CCC2=CC[C@H](C3=CC(=O)O[C@H]3O)O[C@H]2O)C(C)(C)CCC1 [Manoalide, reference compound] | 0.05 µM | –
O=C(c1nc(-c2c[nH]c3ccccc23)c[nH]1)c1c[nH]c2cc(O)ccc12 [Topsentin] | 0.5 µM | capable of the inactivation of bee venom phospholipase A2
C[C@]12CCC(=O)C=C1CC[C@@H]1[C@@H]2[C@@H](O)C[C@@]2(C)[C@H]1CC[C@]2(O)C(=O)CO [Hydrocortisone, reference compound] | > 1000 µM | inactive

Same assay, conditions: 1 h, read-out: percent inactivation of bee venom phospholipase A2 (dose-response)

SMILES | inhibition at 2 µM
O=C(c1nc(-c2c[nH]c3ccccc23)c[nH]1)c1c[nH]c2cc(O)ccc12 [Topsentin] | ≤ 80%

Same assay, conditions: 1 h; final concentration 1 μM; read-out: % Inactivation of bee venom phospholipase A2

SMILES | inhibition at 1 µM
CC(=O)Oc1ccc2c(C(=O)c3ncc(-c4c[nH]c5ccccc45)[nH]3)c[nH]c2c1 [Topsentin monoacetate] | 42%
CN1CC(c2c[nH]c3c(Br)c(Br)cc(O)c23)NCC1c1c[nH]c2cc(Br)ccc12 (stereo not shown) [Dragmacidin] | 27%
Brc1ccc2c(-c3c[nH]c(-c4c[nH]c5cc(Br)ccc45)n3)c[nH]c2c1 [Nortopsentin A] | 30%
Brc1ccc2c(-c3nc(-c4c[nH]c5ccccc45)c[nH]3)c[nH]c2c1 [Nortopsentin B, nortopsentin B] | 27%
O=C(c1nc(-c2c[nH]c3ccccc23)c[nH]1)c1c[nH]c2cc(O)ccc12 [Topsentin] | 67%
O=C(c1nc(-c2c[nH]c3cc(Br)ccc23)c[nH]1)c1c[nH]c2cc(O)ccc12 [Bromotopsentin] | 33%
CC(=O)Oc1ccc2c(C(=O)c3ncc(-c4c[nH]c5ccccc45)n3C(C)=O)c[nH]c2c1 [Topsentin diacetate, topsentin diacetate] | 32%
Brc1ccc2c(-c3c[nH]c(-c4c[nH]c5ccccc45)n3)c[nH]c2c1 [Nortopsentin C, nortopsentin C] | 26%

Same assay, conditions: 1 h; final concentration 1.6 μM; read-out: % Inactivation of bee venom phospholipase A2

SMILES | inhibition at 1.6 µM
O=C1NCC(c2c[nH]c3cc(Br)ccc23)N=C1c1c[nH]c2cc(Br)ccc12 (stereo not shown) [Hamacanthin B] | 32%
O=C1NC(c2c[nH]c3cc(Br)ccc23)CN=C1c1c[nH]c2cc(Br)ccc12 (stereo not shown) [Hamacanthin A] | 37%

Each molecule was assayed on PMA-induced mouse ear edema (assay: Mouse ear anti-inflammatory assay (topical inhibition of PMA-induced edema)). Settings: 50 μg/ear; FIG. 3.
Procedure: A. Mouse ear anti-inflammatory assay. The test compound and a known inflammatory agent, phorbol myristate acetate (PMA), are topically applied simultaneously to the left ears of mice. Three hours and 20 minutes following application, the mice are sacrificed. Both left and right ears are removed and standard-sized bores taken. Edema (inflammation) is measured as the difference in weight between left and right ears (Van Arman, C. G. [1974] Clin. Pharmacol. Ther. 16:900-904).

SMILES | percent inhibition of mouse ear edema (dose-response)
O=C(c1nc(-c2c[nH]c3cc(Br)ccc23)c[nH]1)c1c[nH]c2cc(O)ccc12 [Bromotopsentin] | about 75%

Same assay, conditions: 100 μg/ear; FIG. 2

SMILES | percent inhibition of edema (dose-response)
O=C(c1nc(-c2c[nH]c3ccccc23)c[nH]1)c1c[nH]c2cc(O)ccc12 [Topsentin] | more than 90%

Same assay, conditions: about 12 μg/ear; FIG. 2

SMILES | percent inhibition of edema (dose-response)
O=C(c1nc(-c2c[nH]c3ccccc23)c[nH]1)c1c[nH]c2cc(O)ccc12 [Topsentin] | ~50%

Same assay, conditions: approximately 25 μg/ear; FIG. 3

SMILES | percent inhibition of mouse ear edema (dose-response)
O=C(c1nc(-c2c[nH]c3cc(Br)ccc23)c[nH]1)c1c[nH]c2cc(O)ccc12 [Bromotopsentin] | about 20%

Same assay, conditions: dose 50 μM (so in the source), topical; Table 3

SMILES | % Inhibition of edema
O=C1NCC(c2c[nH]c3cc(Br)ccc23)N=C1c1c[nH]c2cc(Br)ccc12 (stereo not shown) [Hamacanthin B] | 34.0%
O=C1NC(c2c[nH]c3cc(Br)ccc23)CN=C1c1c[nH]c2cc(Br)ccc12 (stereo not shown) [Hamacanthin A] | 50.0%

Same assay, conditions: dose 50 μg/ear, topical; Table 3

SMILES | % Inhibition of edema
CC(=O)Oc1ccc2c(C(=O)c3ncc(-c4c[nH]c5ccccc45)[nH]3)c[nH]c2c1 [Topsentin monoacetate] | 45.8%
CN1CC(c2c[nH]c3c(Br)c(Br)cc(O)c23)NCC1c1c[nH]c2cc(Br)ccc12 (stereo not shown) [Dragmacidin] | 64.0%
Brc1ccc2c(-c3c[nH]c(-c4c[nH]c5cc(Br)ccc45)n3)c[nH]c2c1 [Nortopsentin A] | 98.1%
Brc1ccc2c(-c3nc(-c4c[nH]c5ccccc45)c[nH]3)c[nH]c2c1 [Nortopsentin B, nortopsentin B] | 38.2%
O=C(c1nc(-c2c[nH]c3ccccc23)c[nH]1)c1c[nH]c2cc(O)ccc12 [Topsentin] | 70.6%
O=C(c1nc(-c2c[nH]c3cc(Br)ccc23)c[nH]1)c1c[nH]c2cc(O)ccc12 [Bromotopsentin] | 75.4%
CC(=O)Oc1ccc2c(C(=O)c3ncc(-c4c[nH]c5ccccc45)n3C(C)=O)c[nH]c2c1 [Topsentin diacetate, topsentin diacetate] | 42.6%
Brc1ccc2c(-c3c[nH]c(-c4c[nH]c5ccccc45)n3)c[nH]c2c1 [Nortopsentin C, nortopsentin C] | 70.1%

Same assay, conditions: result in words

SMILES | inhibition of PMA-induced edema / anti-inflammatory activity (in words)
CC(=O)Oc1ccc2c(C(=O)c3ncc(-c4c[nH]c5ccccc45)[nH]3)c[nH]c2c1 [Topsentin monoacetate] | moderate activity
CN1CC(c2c[nH]c3c(Br)c(Br)cc(O)c23)NCC1c1c[nH]c2cc(Br)ccc12 (stereo not shown) [Dragmacidin] | significant potency
Brc1ccc2c(-c3c[nH]c(-c4c[nH]c5cc(Br)ccc45)n3)c[nH]c2c1 [Nortopsentin A] | significant potency
O=C(c1nc(-c2c[nH]c3ccccc23)c[nH]1)c1c[nH]c2cc(O)ccc12 [Topsentin] | significant potency
O=C(c1nc(-c2c[nH]c3cc(Br)ccc23)c[nH]1)c1c[nH]c2cc(O)ccc12 [Bromotopsentin] | significant potency
CC(=O)Oc1ccc2c(C(=O)c3ncc(-c4c[nH]c5ccccc45)n3C(C)=O)c[nH]c2c1 [Topsentin diacetate, topsentin diacetate] | moderate activity
Brc1ccc2c(-c3c[nH]c(-c4c[nH]c5ccccc45)n3)c[nH]c2c1 [Nortopsentin C, nortopsentin C] | significant potency

Same assay, conditions: result in words; listed as topsentin

SMILES | inhibition of PMA-induced edema / anti-inflammatory activity (in words)
O=C(c1nc(-c2c[nH]c3ccccc23)c[nH]1)c1c[nH]c2cc(O)ccc12 [Topsentin] | greater potency than to the known anti-inflammatories hydrocortisone, indomethacin, and manoalide

Same assay, conditions: topical, simultaneous with PMA; 3 h 20 min; Table 2

SMILES | ED50, topical inhibition of PMA-induced mouse ear edema
COc1ccc2c(c1)c(CC(=O)O)c(C)n2C(=O)c1ccc(Cl)cc1 [Indomethacin, reference compound] | 250 μg/ear
CC1=C(CC/C(C)=C/CCC2=CC[C@H](C3=CC(=O)O[C@H]3O)O[C@H]2O)C(C)(C)CCC1 [Manoalide, reference compound] | 100 μg/ear
O=C(c1nc(-c2c[nH]c3ccccc23)c[nH]1)c1c[nH]c2cc(O)ccc12 [Topsentin] | 15 μg/ear
C[C@]12CCC(=O)C=C1CC[C@@H]1[C@@H]2[C@@H](O)C[C@@]2(C)[C@H]1CC[C@]2(O)C(=O)CO [Hydrocortisone, reference compound] | 20 μg/ear
